Results published in US20150057316A1, “NOVEL SULFONATE-BASED TRIMEBUTINE SALTS” (GICARE PHARMA INC., priority 2012, published 2015).

Test system: colorectal distension induced pain
Experiment: electromyographic colorectal distension (CRD) induced pain model
Assay type: in vivo, mice
Conditions: for VMR response to colorectal distension compared to the control group: mice, 30 and 60 mg/kg oral
Description: The purpose was to evaluate the antinociceptive effects of Example 20 in an electromyographic colorectal distension (CRD) induced pain model. This model is recognized by experts in the field to be less subjective than the rat Abdominal Withdrawal Response (AWR) colorectal distension model, and has been used to assess the analgesic and sedative properties of several new compounds, including IBS drugs Zhuo, M; Gebhart, G. F. Facilitation and attenuation of a visceral nociceptive reflex from the rostroventral medulla in the rat. Gastroenterology, 2002, 122 1007-1019; Larsson, M. H.; Rapp, L.; Lindström, E. Effect of DSS-induced colitis on visceral sensitivity to colorectal distension in mice. Neurogastroenterology & Motility, 2006, 18, 144-152; Arvidsson, S.; Larsson, M.; Larsson, H.; Lindström, E.; Martinez, V. J. Pain, 2006, 7, 108-118; Jones, R. C. W.; Gebhart, G. F. Models of Visceral Pain: Colorectal Distension (CRD). Currrent Protocols in Pharmacology, 2004, 5.36, DOI: 10.1002/0471141755.ph0536s25.]
Three groups of 10 male mice (C57Bl6) were used: 2 groups received treatments with […] and one group received their vehicle […].
The groups were divided as follows: • i. 2 groups of 10 mice received an oral administration of Example 20 at two doses, 30 and 60 mg/kg. • ii. 1 group of 10 mice received an oral administration of the vehicle (PEG 200) use to administer Example 20.
All groups were implanted with electrodes in the abdominal external oblique musculature under anaesthesia. The surgery for electrode implantation was performed 5 days before the day of the experiment. The day of the experiment, colorectal distension (CRD) was performed in all animals, by inserting a balloon (10-mm long) into the colon, at 5 mm from the anus. The balloon was inflated with warm water, in a stepwise manner, from 0 to 60 mm Hg, with 15 mm Hg increments. […] At various times after these treatments: 2, 4 and 6-hours, the same series of stepwise CRD were performed and electromyographic responses (VMR in millivolts/sec) were recorded.

For `CCC(COC(=O)c1cc(OC)c(OC)c(OC)c1)(c1ccccc1)N(C)C.NC(=S)c1cccc(S(=O)(=O)O)c1` (stereo not drawn) [Example 20], the “antinociceptive effects on colorectal distension induced pain” value (VMR mouse model, overall conclusion) was “significant antinociceptive effects”, the “VMR response to colorectal distension compared to the control group” value (after 2 and 4 hours) was “overall reduction of the VMR response” and the “VMR response to colorectal distension compared to the control group” value (at 6 hours, not statistically different from control) was “trend toward efficacy”.
